Test results from a melting point compilation (Tetko et al.; mined from patent text by program, amines drawn as free bases though some values may be those of a salt).

melting point [°C] | SMILES
180 to 185 | N#Cc1c(-c2ccc(Cl)cc2)[nH]c([N+](=O)[O-])c1Br
99 to 102 | CCOC(=O)c1nc2ccc(F)cc2n(CC)c1=O
108 to 109 | Clc1ccc(-c2nc(-c3ccccc3)sc2CBr)cc1
181 | O=C1O[C@@H](Cn2ccnn2)CN1c1ccc(-c2ccc(C3=NOC(CNCCc4ccncc4)C3)nc2)c(F)c1 (stereo not given in full)
164 to 168 | Fc1ccc(-c2nc(SC(F)(F)C(F)F)[nH]c2-c2cccs2)cc1
122 to 126 | O=C1c2cccc(OCc3ccccc3)c2C(=O)c2c(Cl)ccc(Cl)c21
99 to 101 | CC(C)C[C@H](NC(=O)c1cccc2c1Nc1ccccc1S2)C(=O)N[C@H]1CCOC1O (stereo not given in full)
265 | O=C(CC12CC3CC(CC(C3)C1)C2)Nc1ccc2[nH]ncc2c1
166 to 171 | CCOc1ccccc1Sc1ccc(/C=C/C(=O)N2CCCC(C(=O)O)C2)cc1Cl (stereo not given)
195 to 196 | Nc1cc(=O)n(Cc2cc(Cl)ccc2Cl)[nH]1
145 | O=C1c2nccc(Br)c2C(=O)c2c(-c3ccccc3NC(=O)C(F)(F)F)ccnc21
195 | CN(c1ccc(O)cc1)c1nc2ccc(Br)cc2o1
120 to 122 | CCn1cc(C(=O)O)c(=O)c2cc(F)c(N3CCCC(CN)C3)nc21 (stereo not given)
169 to 171 | CN(C)C(=O)NCc1cccc2c1CN(C1CCC(=O)NC1=O)C2=O (stereo not given)
> 270 | Nc1nnc(-c2cc3c(Oc4ccc(Cl)cc4)cncc3s2)[nH]1
143 to 144 | COC(=O)c1[nH]c(C)c(Cc2ccccc2)c1N
136 | CCc1nnc(-c2ccc(OC)cc2)n1-c1ccc(N(C)C)cc1
78 to 79 | O=C1C(CCO)Oc2cc(F)ccc2N1Cc1cccc(F)c1 (stereo not given)
83 to 88 | CC(C)C[C@H](NC(=O)CCC(=O)c1ccccc1)C(=O)N[C@@H](C(C)C)[C@@H](O)c1c(-c2ccccc2)c1=O
> 280 | Cc1nn(-c2ccccc2)c(O)c1-c1c(C)nn(-c2ccccc2)c1O
189 to 190 | O=c1ccc(-c2c(-c3ccccc3)nn3ccccc23)nn1C1CCC2(CC1)OCCO2
155 to 156 | Cc1cn(C)c2c1C(=O)CC(c1ccccc1)C2 (stereo not given)
153 to 154 | O=Cc1[nH]ccc1-c1ccc(I)cc1
141 to 152 | c1nc(Nc2ccc3[nH]ccc3c2)c2sc(-c3ccc(CN4CCOCC4)cc3)cc2n1
180 to 181 | O=C(NCc1ccccc1)c1ccnc(NC(=O)c2cc(F)ccc2Cl)c1
> 300 | COc1ccc(CC2NCCCC2C(C)O)cc1 (stereo not given)
153 to 154 | N#Cc1cccc(CSc2nnc(-c3ccnc(NC(=O)CCc4ccccc4)c3)o2)c1

melting point [°C] | SMILES
162 to 164 | CCOCc1nc2c(N)nc3ccccc3c2n1NC(C)C
134 | CCOC(=O)c1c(N2CCN(C(=O)c3ccco3)CC2)c2cc(F)cnc2n(CC(=O)c2ccccc2)c1=O
56 to 57 | CCOC(=O)Cc1sc(Sc2cccc(C(F)(F)F)n2)nc1C
248 | CC(NC(=O)c1cc(Cl)ccc1NC(=O)C1CC(=O)NN1)C1CC1 (stereo not given)
215 to 218 | NC(=O)c1sc2nccc(N3CCCN(c4ccccc4)CC3)c2c1N
172 | COC(=O)c1ccc(COCn2cc(Cl)cnc2=O)cc1
177 to 179 | CCOC(=O)c1ccc(C2CC(=O)N(C)C2C(O)c2ccc(-c3ccccc3)s2)cc1 (stereo not given)
138 to 139 | CC1(c2nc(-c3ccc(Cl)cc3)c(CCC(=O)O)o2)CCCCC1
121 to 124 | O=C1NCC(CCN2CCN(c3ccccc3F)CC2)O1 (stereo not given)
109 to 111 | COC(=O)c1sc(C(C)(C)C)cc1NC(=O)Nc1ccc(C)cc1
143 | Cc1cccc(C)c1NC(=O)CN1CCN(CCC(c2ccc(F)cc2)c2ccc(F)cc2)C(C(N)=O)C1 (stereo not given)
139 | O=c1[nH]c2ccccc2n1CCCN1CCN(C(c2ccccc2)c2ccccc2Cl)CC1 (stereo not given)
118 to 120 | CN1CCN(c2c(-c3ccccc3)sc3ccccc23)CC1
148 to 150 | O=C1N[C@@H](Cc2ccccc2)[C@@H](COS(=O)(=O)c2ccc([N+](=O)[O-])cc2)O1
237 to 239 | O=C(Cn1c2c(c(=O)n3nc(-c4ccc(Cl)cc4)cc13)CN(C1CCCCC1)C2=O)c1ccccc1
221 to 223 | COc1csc(C(=O)C2C(=O)N(C(N)=O)c3ccc(Cl)cc32)c1 (stereo not given)
190 to 191 | O=C(NCCCCc1ccc(-c2ccc(=O)[nH]n2)cc1)c1cccnc1
150 to 151 | CC(C)C(C(=O)O)c1ccc2sccc2c1 (stereo not given)
83.8 | CCCCCc1ccc(-c2ccc(C(C)O)cc2)cc1 (single isomer, unassigned; (-))
185 to 188 | CCC1C(=O)C2C3CCC(C(C)CCC(=O)O)C3(C)CCC2C2(C)CCC(O)CC12 (stereo not given)
160 to 161 | CC(=O)NS(=O)(=O)c1ccc(N2CCN(CC[C@@H]3OCCc4ccccc43)CC2)cc1
118 to 120 | CC(C)(COC(=O)CCC(=O)O)Oc1ccc2c(c1)CCc1c-2ccc2c1CCC2(C)C
120 to 123 | OCC1OC(n2cnc3c(NCC(c4ccccc4)c4ccccc4)nc(Cl)nc32)C(O)C1O (stereo not given)
109 to 111 | COc1ccc(C=O)cc1CN1C(=O)c2ccccc2C1=O
110 to 112 | COc1cc2c(cc1OC)CN(CCCNS(=O)(=O)c1cc(Cl)c(F)cc1F)CC2
197 to 198 | CC1Oc2ccc(CN3CCN(c4ccc(Cl)cn4)CC3)cc2NC1=O (stereo not given)

Second part, the molecule before the results:

SMILES | melting point [°C]
CC(=O)OC[C@H](Cc1ccccc1)NC(=O)[C@H](Cc1ccccc1)NC(=O)c1ccccc1 | 186 to 187
CCC(=O)N[C@H]1CC[C@H](CCN2CCN(c3nccc4c3OCC4)CC2)CC1 | 196
CN1CCN(C(=NO)C2=Nc3ccc(Cl)cc3C(c3ccccc3F)=NC2)CC1 | 198 to 200
CN(C)CCOc1ccc(CNC(=O)c2ccccc2N)cc1 | 104 to 105
C#CCOc1nnc(Cl)c2ccccc12 | 134 to 136
CCN(C)c1nc(-c2cc(OC)c(OC)c(OC)c2)nc2sc(C#N)c(C)c12 | 163 to 164
CCOC(=O)C(C(N)=O)c1cc(OC)c(OC)c(OC)c1 (stereo not given) | 93
CCCCNC(=O)NS(=O)(=O)c1cccc2c1nnn2C | 170 to 173
CC1(C2=CCC3C4CCC5CC(O)CCC5(C)C4C(O)CC23C)OCCO1 (stereo not given) | 214 to 218
Cc1ccc(N2C(=O)C(O)=C(C(=O)c3ccc(C(C)C)cc3)C2c2ccc(F)cc2)nn1 (stereo not given) | 273 to 278
C[C@@H]1Cc2ccsc2[C@H](C)N1CCCCNS(=O)(=O)c1ccc(NS(C)(=O)=O)cc1 (relative stereo) | 134 to 136
Cc1cc(Oc2ccc3nc(COc4ccc(CC5SC(=O)NC5=O)cc4)n(C)c3c2)cc(C)c1NC(=O)Nc1ccc([N+](=O)[O-])cc1 (stereo not given) | 178 to 180
COC(=O)c1cc(OC)nc(C)n1 | 90 to 93
O=C(CCC(F)([N+](=O)[O-])[N+](=O)[O-])NNC(=O)C(F)(F)C(F)(F)F | 128 to 132
Cc1cc(C(N)(C(F)(F)F)C(F)(F)F)cc(C)c1OCC(=O)O | 138
N#CCCCCCCCCCCCCC#N | < 40
Cc1cc(Oc2cc(C(F)(F)F)nn2C)nc(C(=O)O)c1 | 168
NC(=O)c1cnc(N)c([N+](=O)[O-])c1 | 289 to 290
O=C(O)CCCNC(=O)n1cc(F)c(=O)[nH]c1=O | 146 to 147
CC(=O)N1CC(C)C(=O)N(C(C)=O)C1=O (stereo not given) | 130 to 131
NCCCP(=O)(O)c1ccccc1 | 298 to 300
CN(C(=O)N[C@@H](Cc1ccc(Oc2nccc3ccncc23)cc1)C(=O)O)c1ccccc1Cc1ccccc1 | 128
CN(C)c1ncc(NC(=O)c2cc3cc(C(F)(F)F)cnc3n2Cc2cccc(F)c2)cn1 | 236 to 238
N[C@@H](CC1CCCCC1)[C@@H](O)[C@@H]1CCCS1 | 58 to 59

SMILES | melting point [°C]
O=C(O)C1=Cc2cc(C(O)C(F)(F)F)ccc2OC1C(F)(F)F (stereo not given) | 114 to 120
CCNC(=O)C(=O)NCC(OCC)OCC | 131 to 132
CCOC(=O)CC[C@H](NC(=O)OCc1ccccc1)C(=O)O | 82 to 84
CC(C)(C)NC(=O)[C@@H]1[C@@H](O)CCN1C(=O)OC(C)(C)C | 122 to 124
Cc1cc(C)cc(S(=O)(=O)c2c(C(C)C)nc(C)n2C)c1 | 126 to 128
CC(C)C(C#N)c1ccc(O)c(O)c1 (stereo not given) | 134 to 136
Oc1ccc(-c2nc(-c3ccc(O)cc3O)nc(-c3cccn3Cc3ccccc3)n2)c(O)c1 | > 275
COc1nc(-n2ncc(C#N)c2N)c(C(F)(F)F)cc1Cl | 163 to 165
CP(=O)(CCl)C1CCCCC1 (stereo not given) | 51 to 53
C#Cc1cc(C=Cc2cc(C(C)(C)C)cc(C(C)(C)C)c2)cc(C=Cc2cc(C(C)(C)C)cc(C(C)(C)C)c2)c1 | 156 to 157
C=C1C(=O)c2ccccc2OC1c1ccc([N+](=O)[O-])cc1 (stereo not given) | 135 to 136
CCCCCOc1nc(N)nc2c1ncn2C1C=CC(CO)C1 (stereo not given) | 139 to 141
c1cc(COc2ccc(OCc3ccc4ccccc4n3)cc2)cc(OCc2nnn[nH]2)c1 | 131 to 132
OC(/C=C/c1cc(C(F)(F)F)ccc1Cl)(CF)CF | 61 to 62
COC(=O)C=C1NCC(C)OC1=O (stereo not given) | 98 to 101
Cc1ccc(C(=O)NCCN(C)C)cc1-n1c(C)cc(OCc2ccccc2CNC(=O)Nc2cc(C(C)(C)C)nn2-c2ccc(O)c(Cl)c2)c(Cl)c1=O | 181 to 182
CC(=O)Oc1ccc(C(=O)O)c(C)c1 | 136 to 138
CC(N(CC(=O)O)C(=O)c1ccc(C(F)(F)F)cc1)C(O)(Cn1cncn1)c1ccc(C(F)(F)F)cc1 (stereo not given) | 201 to 204
CCN(C)c1nsc(NC(=O)N(C)C)c1C#N | 115 to 130
CCCn1c(SC)nc2cc(Br)sc2c1=O | 138 to 141
NC(=S)C=Cc1ccc(C(F)(F)F)cc1 | 167 to 170
COc1nc(OC)c(I)c(C(=O)O)n1 | 125 to 126
CC(=O)NC(=S)NCC1CC2c3cccc4c3c(cn4C)CC2N(C)C1 (stereo not given) | 195 to 197
